Laboratory results published in US11419857B2, “Methods and compositions for treating pain” (Apkarian Technologies LLC, priority 2015, dated 2022).

Test system: iSPNs in NAc shell slices
Experiment: Whole-cell patch-clamp recording of iSPN excitability in NAc shell slices, drugs bath applied
Format: cell-based, mice
Procedure: Current clamp recordings were performed to quantify firing properties.
Sulpiride and Bicifadine were obtained from Tocris. CBR12909 was obtained from Sigma-Aldrich. Drugs were bath applied for at least 15 min to establish equilibrium in the tissue.

SMILES	excitability of iSPNs (slices from SNI mice, bath application 20 μM)	excitability of iSPNs (brain slices from sham mice, 5 μM)	excitability of iSPNs (slices from SNI mice, 5 μM)
Cc1ccc(C23CNCC2C3)cc1 (stereo not drawn) [bicifadine]	decreased the excitability of iSPNs	–	–
CCN1CCCC1CNC(=O)c1cc(S(N)(=O)=O)ccc1OC (stereo not drawn) [sulpiride]	–	increased the excitability of iSPNs	no detectable change in iSPNs excitability
